Source: patent US20260144769A1, “4-PHENYLBUTYRATE RESTORED GABA UPTAKE AND REDUCED SEIZURES IN SLC6A1 VARIANT-MEDIATED DISORDERS” (Vanderbilt University, priority 2022, published 2026)

Tested on: GAT-1
Test: 3H GABA uptake, cultured cortical neurons from the knockin mice
Type: cell-based, mouse
Conditions: PBA 2 mM, 24 hr
Method: FIGS. 7C-D show neurons directly cultured in the 35-mm^2 dishes and GABA uptake was evaluated between day 15-17 days after culture. CI-966 (50 μM) and NNC711 (35 μM) was applied 30 min before preincubation and removed during preincubation. GAT-3 inhibitor SNAP5114 (30 μM) was applied during GABA uptake to make sure only GAT-1 activity was measured. The wildtype astrocytes (FIGS. 7A-B) or cortical neurons (FIGS. 7C-D) of either SLC6A1^+/A288V or SLC6A1^+/S295L were taken as 1. The cultures derived from each mutant mouse was compared to the culture from its own wildtype littermates. […] The wildtype data were pooled from two mouse lines. […] The graph represents the relative GABA uptake level normalized to cells of its own genotype treated with DMSO. CI-966 (50 μM) or NNC-711 (35 μM) was applied 30 min before preincubation and removed during preincubation. Two-way analysis of variance followed by Bonferroni multiple comparison test was used. Values were expressed as mean±S.E.M. In FIG. 7A and FIG. 7C, ***p<0.001 vs. wt; § § § P<0.001 S295L vs. A288V. […]
Briefly, cells were cultured in […] dishes for 3 days before the GABA uptake experiment in DMEM with 10% fetal bovine serum and 1% penicillin/streptomycin. […] Glacial acetic acid was added, and lysates were then determined on a liquid scintillator with QuantaSmart. […]

O=C(O)CCCc1ccccc1 [PBA, 4-phenylbutyric acid]
GABA uptake in PBA treated cells: upregulation
